ED50, TD50 and PI data for 16 compounds are collected here from ChEMBL document CHEMBL1135631, “Design and evaluation of affinity labels of functionalized amino acid anticonvulsants” (J Med Chem, 2002).

The subject of one series is Rattus norvegicus. As to the kind of experiment: Anticonvulsant activity using MES test in rat after oral administration. The format is functional.
Series [1] in a line: Neurologic toxicity using rotarod test in mice after intraperitoneal administration. Format: organism-based. The settings on record: mouse, in vivo, ip. In general terms: The rotarod test checks motor coordination on a turning rod.
A further series deals with Mus musculus. As to the kind of experiment: (§1) Anticonvulsant activity using MES test in mice after intraperitoneal administration. Format: functional. Conditions: ip.
Series [2] can be described thus: Neurologic toxicity using rotarod test in rat after oral administration. The format is organism-based. The settings on record: in vivo.
Series [3] concerns the target Metabotropic glutamate receptor 1 (Rattus norvegicus) (UniProt P23385). The description is as §1. The settings on record: Mus musculus; target entry is the homologue from another species. Format: functional, organism-based.
Series [4] in a line: Protective index as the ratio of TD50 value to that of ED50 value in mice. Format: functional.
A short description of series [5]: Protective index as the ratio of TD50 value to that of ED50 value in rat. The format is functional.

Molecules are shown by their SMILES.

Chain of Metabotropic glutamate receptor 1 (Rattus norvegicus) (P23385 19-1199 limits assumed): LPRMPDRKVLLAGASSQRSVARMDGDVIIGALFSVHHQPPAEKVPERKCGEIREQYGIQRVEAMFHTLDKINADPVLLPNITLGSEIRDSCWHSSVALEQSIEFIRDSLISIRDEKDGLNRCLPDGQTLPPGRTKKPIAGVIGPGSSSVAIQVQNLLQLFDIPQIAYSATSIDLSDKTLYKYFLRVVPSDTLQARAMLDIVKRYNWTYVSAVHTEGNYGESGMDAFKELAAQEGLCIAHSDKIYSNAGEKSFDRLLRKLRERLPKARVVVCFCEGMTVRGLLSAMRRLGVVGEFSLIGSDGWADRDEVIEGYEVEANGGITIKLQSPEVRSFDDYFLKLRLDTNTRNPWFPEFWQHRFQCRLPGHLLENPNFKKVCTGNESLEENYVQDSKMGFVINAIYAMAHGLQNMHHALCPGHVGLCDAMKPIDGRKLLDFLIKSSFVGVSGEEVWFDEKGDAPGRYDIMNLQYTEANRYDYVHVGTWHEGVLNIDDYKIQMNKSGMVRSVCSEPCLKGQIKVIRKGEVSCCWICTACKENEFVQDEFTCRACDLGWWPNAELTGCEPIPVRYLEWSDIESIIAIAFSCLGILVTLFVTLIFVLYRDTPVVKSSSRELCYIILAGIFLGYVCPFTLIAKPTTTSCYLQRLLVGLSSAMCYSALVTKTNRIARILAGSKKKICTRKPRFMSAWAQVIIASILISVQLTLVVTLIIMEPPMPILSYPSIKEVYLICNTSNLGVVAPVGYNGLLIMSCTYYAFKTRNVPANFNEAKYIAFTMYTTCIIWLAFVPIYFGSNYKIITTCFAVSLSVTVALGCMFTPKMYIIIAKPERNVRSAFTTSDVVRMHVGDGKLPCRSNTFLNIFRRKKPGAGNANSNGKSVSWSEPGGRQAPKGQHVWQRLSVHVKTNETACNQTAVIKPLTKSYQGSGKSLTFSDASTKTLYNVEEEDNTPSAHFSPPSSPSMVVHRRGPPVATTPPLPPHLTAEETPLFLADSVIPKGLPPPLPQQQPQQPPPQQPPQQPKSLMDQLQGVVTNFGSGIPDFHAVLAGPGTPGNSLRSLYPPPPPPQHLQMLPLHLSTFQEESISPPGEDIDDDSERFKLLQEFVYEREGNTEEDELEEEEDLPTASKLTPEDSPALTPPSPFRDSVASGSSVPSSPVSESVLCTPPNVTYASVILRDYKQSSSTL

With `O=C1NC(=O)C(c2ccccc2)(c2ccccc2)N1` [PHENYTOIN], the 50% effective dose (ED50) with Rattus norvegicus was found to be 30 mg/kg.

For `C=CC(=O)NC(COC)C(=O)NCc1ccccc1` (racemic), the TD50 in series [1] was more than 300 mg/kg; in series [2] it was more than 30 mg/kg. Moreover, the ED50 in the series with Mus musculus is more than 100 mg/kg; in the series on Rattus norvegicus, more than 30 mg/kg.

As to `COC[C@H](NC(C)=O)C(=O)NCc1ccccc1`, the TD50 was more than 300 mg/kg in series [1] and more than 30 mg/kg in series [2]. The compound also registered an ED50 with Rattus norvegicus of more than 30 mg/kg.

For `CC(=O)NC(CCCCN=C=S)C(=O)NCc1ccccc1` (racemic), the TD50 in series [1] and in series [2] was more than 30 mg/kg in each case. Further, the ED50 in the series with Mus musculus and in the series with Rattus norvegicus was more than 30 mg/kg each time.

Consider `CCC1(c2ccccc2)C(=O)NC(=O)NC1=O` [PHENOBARBITAL], for which the median effective dose (ED50) in the series on Mus musculus was 22 mg/kg; with Rattus norvegicus, 9.1 mg/kg.

For `COC[C@@H](NC(C)=O)C(=O)NCc1cccc(N=C=S)c1`, the ED50 was 74 mg/kg in series [3] and 28 mg/kg in the series with Rattus norvegicus. The TD50 in series [1] is 120 mg/kg; in series [2], more than 250 mg/kg. The PI is recorded as 1.6 in series [4] and more than 9 in series [5].

Turning to `COC[C@@H](NC(C)=O)C(=O)NCc1ccccc1` [LACOSAMIDE], the PI in series [4] is recorded as 6; in series [5] it was more than 128. This compound also came in with a TD50 in series [2] of more than 500 mg/kg.

Turning to `COC[C@@H](NC(=O)CBr)C(=O)NCc1ccccc1`, the TD50 in series [1] was more than 30 mg/kg. The same compound had an ED50 in the series on Mus musculus of more than 300 mg/kg.

Turning to `COC[C@H](NC(C)=O)C(=O)NCc1cccc(N=C=S)c1`, the TD50 in series [1] is more than 100 mg/kg; in series [2], more than 150 mg/kg. Also, the values for the 50% effective dose (ED50) in the series on Mus musculus and in the series with Rattus norvegicus were more than 100 mg/kg and more than 150 mg/kg, respectively.

Regarding `COC[C@@H](NC(C)=O)C(=O)NCc1ccc(N=C=S)cc1`, the TD50 in series [1] was 47 mg/kg; in series [2], more than 250 mg/kg. Further, the results for the PI in series [4] and in series [5] were 2 and more than 59, respectively. The ED50 in the series on Mus musculus stood at 24 mg/kg; with Rattus norvegicus it was 4.2 mg/kg.

Take `COCC(NC(C)=O)C(=O)NCc1ccccc1` (racemic): the PI in series [4] is given as 5.2; in series [5], 101. The same compound returned a TD50 in series [2] of 37 mg/kg.

For `CCCC(NC(C)=O)C(=O)NCc1ccccc1` (racemic), the TD50 in series [1] is 160 mg/kg; in series [2], more than 30 mg/kg. Further, the PI in series [4] is reported as 4.2; in series [5], more than 30. For the same compound, the results for the ED50 with Mus musculus and with Rattus norvegicus were 38 mg/kg and 30 mg/kg, respectively.

`COC[C@H](NC(C)=O)C(=O)NCc1ccc(N=C=S)cc1`: the TD50 in series [1] and in series [2] was more than 30 mg/kg in each case. Moreover, the results for the 50% effective dose (ED50) in the series with Mus musculus and with Rattus norvegicus were more than 100 mg/kg and more than 180 mg/kg, respectively.

For `CCCC(CCC)C(=O)O` [VALPROIC ACID], in the series on Mus musculus, the ED50 is 270 mg/kg.

With `CCOCC(NC(C)=O)C(=O)NCc1ccccc1` (racemic), the 50% effect level in the series on Mus musculus (ED50) was put at a dose of 17 mg/kg.

With `COC[C@H](NC(=O)CBr)C(=O)NCc1ccccc1`, in series [1], the TD50 was more than 30 mg/kg. The compound also had an ED50 in the series with Mus musculus of more than 30 mg/kg.

The ED50 is the dose at which the effect has come halfway, by size or by number of responders. A higher ED50 goes with weaker potency. The TD50 is the 50% point of the dose-response relation for the toxic effect studied. Higher therefore signals lower toxicity.
